One assay concerns MCF7. Put plainly: Cytotoxicity against human MCF7 cells assessed as reduction in cell viability measured after 4 days by MTT assay. In kind it is functional, cell-based. Conditions: MCF7, 96 h. (In general: Tetrazolium assays rely on reduction of a dye to a coloured formazan, in cell work by metabolically active cells.)
Assay [1] concerns the target T1, NAD-dependent protein deacetylase sirtuin-3, mitochondrial (Homo sapiens) (UniProt Q9NTG7).
T1 sequence (whole entry): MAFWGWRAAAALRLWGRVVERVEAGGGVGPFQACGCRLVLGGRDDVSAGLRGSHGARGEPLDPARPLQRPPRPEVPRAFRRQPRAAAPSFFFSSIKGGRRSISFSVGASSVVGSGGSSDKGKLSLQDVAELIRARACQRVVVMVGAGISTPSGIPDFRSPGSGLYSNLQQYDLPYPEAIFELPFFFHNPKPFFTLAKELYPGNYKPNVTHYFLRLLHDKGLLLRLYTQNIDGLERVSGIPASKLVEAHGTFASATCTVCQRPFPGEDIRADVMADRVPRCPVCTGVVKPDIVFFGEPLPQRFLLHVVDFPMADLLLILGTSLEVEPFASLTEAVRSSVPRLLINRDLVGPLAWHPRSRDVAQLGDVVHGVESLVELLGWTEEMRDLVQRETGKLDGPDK
Put plainly: Inhibition of recombinant SIRT3 (unknown origin) assessed as residual activity using VSTPVK(Ac)-MCA as substrate measured after 60 mins by fluorescence assay relative to control. On the set-up: concentration or dose not given beside the values.

For a further assay, the system named is MT2. Put plainly: Cytotoxicity against human MT2 cells assessed as reduction in cell viability measured after 1 day by MTT assay. In kind it is cell-based. Conditions: MT2, 24 h.
The target of assay [2] is T2, NAD-dependent protein deacetylase sirtuin-1 (Homo sapiens) (UniProt Q96EB6).
T2 sequence (whole entry): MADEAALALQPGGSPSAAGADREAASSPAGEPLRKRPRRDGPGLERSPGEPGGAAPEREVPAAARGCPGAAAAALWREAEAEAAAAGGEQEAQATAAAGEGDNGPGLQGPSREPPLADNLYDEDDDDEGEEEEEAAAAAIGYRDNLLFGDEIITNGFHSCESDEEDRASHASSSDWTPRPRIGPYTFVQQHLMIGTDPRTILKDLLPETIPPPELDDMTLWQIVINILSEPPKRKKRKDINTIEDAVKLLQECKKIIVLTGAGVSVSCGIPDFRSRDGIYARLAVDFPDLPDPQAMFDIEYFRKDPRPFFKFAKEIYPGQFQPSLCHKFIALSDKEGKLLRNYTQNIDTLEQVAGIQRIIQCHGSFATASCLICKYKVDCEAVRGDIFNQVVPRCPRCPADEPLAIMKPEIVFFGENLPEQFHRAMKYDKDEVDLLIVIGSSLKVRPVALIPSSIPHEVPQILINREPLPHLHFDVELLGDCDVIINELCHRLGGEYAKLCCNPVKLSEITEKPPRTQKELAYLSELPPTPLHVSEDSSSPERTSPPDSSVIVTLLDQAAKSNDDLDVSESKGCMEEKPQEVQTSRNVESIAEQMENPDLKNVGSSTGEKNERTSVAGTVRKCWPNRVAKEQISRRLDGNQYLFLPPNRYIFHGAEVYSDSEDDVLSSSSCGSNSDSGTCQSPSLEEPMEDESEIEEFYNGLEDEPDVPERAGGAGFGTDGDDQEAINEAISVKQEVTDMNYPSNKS
Put plainly: Inhibition of recombinant SIRT1 (unknown origin) assessed as residual activity using RHKK(Ac)-MCA as substrate measured after 60 mins by fluorescence assay relative to control. On the set-up: concentration or dose not given beside the values.

The test system of the next assay is K562. Put plainly: Cytotoxicity against human K562 cells assessed as reduction in cell viability measured after 1 day by MTT assay. The class given is functional, cell-based. Conditions: K562, 24 h.
Assay [3] has as its target T3, NAD-dependent protein deacetylase sirtuin-2 (Homo sapiens, UniProt Q8IXJ6).
T3 sequence (Q8IXJ6 whole entry): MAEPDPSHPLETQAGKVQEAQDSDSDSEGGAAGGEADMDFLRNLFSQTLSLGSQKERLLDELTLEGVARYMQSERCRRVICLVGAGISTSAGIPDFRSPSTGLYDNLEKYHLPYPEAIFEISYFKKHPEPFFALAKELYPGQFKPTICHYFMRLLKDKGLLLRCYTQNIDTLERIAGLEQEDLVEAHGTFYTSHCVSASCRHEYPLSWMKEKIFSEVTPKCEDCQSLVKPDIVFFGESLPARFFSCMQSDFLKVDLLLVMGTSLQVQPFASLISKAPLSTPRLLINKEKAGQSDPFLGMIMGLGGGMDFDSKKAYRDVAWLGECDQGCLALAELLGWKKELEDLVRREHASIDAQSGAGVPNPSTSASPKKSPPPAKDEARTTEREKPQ
Put plainly: Inhibition of recombinant SIRT2 (unknown origin) using FAM-RHKK(Ac)LM as substrate measured after 60 mins by electrophoretic mobility shift assay.

Assay [4] deals with T3, NAD-dependent protein deacetylase sirtuin-2. Put plainly: Inhibition of recombinant SIRT2 (unknown origin) using RHKK(Ac)-MCA as substrate measured after 60 mins by fluorescence assay.

Usually IC50 stands for the concentration needed to halve the response being measured. As for `COC(=O)[C@@H](N)Cc1cn(C(c2ccccc2)(c2ccccc2)c2ccccc2)cn1`, the IC50 with MCF7 was 49.1 µM; in the assay on MT2 it was 3.13 µM; in the assay with K562 it was 7.2 µM; in assay [3], 43 µM. In addition, the Activity turned out to be 76.2% in assay [1] and 95.9% in assay [2].

For the molecule `COC(=O)[C@H](Cc1cn(C(c2ccccc2)(c2ccccc2)c2ccccc2)cn1)NCc1cnc2ccccc2c1`, the IC50 in assay [3] was 3.3 µM.

With `COC(=O)[C@H](Cc1cn(C(c2ccccc2)(c2ccccc2)c2ccccc2)cn1)NC(=O)c1ccccn1`, the IC50 in assay [3] was 20.4 µM.

`COC(=O)[C@H](Cc1cn(C(c2ccccc2)(c2ccccc2)c2ccccc2)cn1)NCc1ccc(Br)nc1`: the IC50 in the assay with MCF7 is 9.87 µM; with MT2, 1.37 µM; with K562 it was 5.35 µM; in assay [3] it was 5.9 µM. The Activity in assay [1] was 71.9%; in assay [2] it was 102%.

Turning to `COC(=O)[C@H](Cc1cn(C(c2ccccc2)(c2ccccc2)c2ccccc2)cn1)NCc1cc(N(C)C)cc(CN[C@@H](Cc2cn(C(c3ccccc3)(c3ccccc3)c3ccccc3)cn2)C(=O)OC)n1`, the IC50 is 1.72 µM in the assay on MCF7, 8.8 µM in assay [4], 8.86 µM in the assay with MT2 and 7.91 µM in the assay with K562.

As for `COC(=O)[C@H](Cc1cn(C(c2ccccc2)(c2ccccc2)c2ccccc2)cn1)N(Cc1ccccc1)Cc1ccccc1`, the Activity is 90.7% in assay [1] and 116% in assay [2]. Besides, in assay [3], the IC50 was above 100 µM.

Regarding `COC(=O)[C@H](Cc1cn(C(c2ccccc2)(c2ccccc2)c2ccccc2)cn1)NCc1ccc(N(C)C)cc1`, the IC50 is 11.9 µM in the assay on MCF7, 6.81 µM in the assay on MT2, 10.4 µM in the assay with K562 and 11.8 µM in assay [3]. Besides, the Activity was 81.7% in assay [1] and 105% in assay [2].

As to `COC(=O)[C@H](Cc1cn(C(c2ccccc2)(c2ccccc2)c2ccccc2)cn1)NCc1ccccc1`, in assay [3], the IC50 is 16.4 µM.

For the molecule `COC(=O)[C@H](Cc1cn(C(c2ccccc2)(c2ccccc2)c2ccccc2)cn1)NCc1ccncc1Br`, the IC50 in assay [3] is 6.7 µM.

With `COC(=O)[C@H](Cc1cn(C(c2ccccc2)(c2ccccc2)c2ccccc2)cn1)NCc1cccc(Br)n1`, in assay [3], the IC50 is 7.5 µM.

Consider `COC(=O)[C@H](Cc1cn(C(c2ccccc2)(c2ccccc2)c2ccccc2)cn1)NCc1ccccn1`, for which the IC50 with MCF7 turned out to be 8.96 µM; in the assay with MT2, 1.75 µM; with K562 it was 6.36 µM; in assay [3], 21.8 µM. Further, the results for the Activity in assay [1] and in assay [2] were 67.7% and 96.5%, respectively.

As to `COC(=O)[C@H](Cc1cn(C(c2ccccc2)(c2ccccc2)c2ccccc2)cn1)NCc1ccc2ccccc2n1`, in assay [3], the IC50 stood at 2.5 µM.

With `COC(=O)[C@H](Cc1cn(C(c2ccccc2)(c2ccccc2)c2ccccc2)cn1)NCc1cccc(N(C)C)c1`, the IC50 in assay [3] was determined as 5.6 µM.

Consider `CCN(CC)c1ccnc(CN[C@@H](Cc2cn(C(c3ccccc3)(c3ccccc3)c3ccccc3)cn2)C(=O)OC)c1`, for which the IC50 in the assay on MCF7 stood at 0.71 µM; in the assay with MT2, 4.36 µM; in the assay on K562, 6.27 µM; in assay [3], 1.3 µM.

Consider `COC(=O)[C@H](Cc1c[nH]cn1)NCc1cc(N(C)C)cc(CN[C@@H](Cc2cn(C(c3ccccc3)(c3ccccc3)c3ccccc3)cn2)C(=O)OC)n1`, for which the IC50 was 2.29 µM in the assay on MCF7, 5.5 µM in assay [4], 8.61 µM in the assay on MT2 and 6.51 µM in the assay with K562.

As to `COC(=O)[C@H](Cc1cn(C(c2ccccc2)(c2ccccc2)c2ccccc2)cn1)NCc1cc(N(C)C)ccn1`, the IC50 in the assay on MCF7 turned out to be 0.77 µM; in assay [4], 1.7 µM; in the assay with MT2, 3.53 µM; in the assay on K562, 7.53 µM; in assay [3] it was 1.7 µM.

Take `Cc1cc(C)nc(SCC(=O)Nc2ncc(Cc3cccc4ccccc34)s2)n1`: the IC50 in the assay with MCF7 was 13.7 µM; in the assay on MT2 it was above 100 µM; in the assay with K562 it was above 100 µM.

For `COC(=O)[C@H](Cc1cn(C(c2ccccc2)(c2ccccc2)c2ccccc2)cn1)NCc1ccc(Br)cn1`, the IC50 in assay [3] is 10.2 µM.

Source of the values: ChEMBL document CHEMBL4392825, “New SIRT2 inhibitors: Histidine-based bleomycin spin-off” (Bioorg Med Chem, 2019).
